# From US20240082331A1, “ANTI-OBESITY COMPOSITION CONTAINING, AS ACTIVE INGREDIENT, MORINGA OLEIFERA FERMENTATION PRODUCT PREPARED USING NOVEL MONASCUS PURPUREUS SL1” (MBIOMETHERAPEUTICS CO., LTD., priority 2021, published 2024)
# System: 3T3-L1 preadipocytes
# Assay: Inhibition of adipocyte differentiation (AdipoRed assay)
# Assay type: cell-based, mice
# Details: FIG. 3
# Description: Preadipocytes (3T3-L1) from mice were purchased from ATCC (American Type Culture Collection). DMEM culture medium, Trypsin/EDTA, FBS (fetal bovine serum), and BCS (Bovine calf serum) were purchased from Gibco (Invitrogen corporation). AdipoRed assay reagent for measurement was purchased from Cambrex. Specifically, 3T3-L1 preadipocytes were cultured in DMEM medium containing 10% BCS and antibiotics, and maintained in a CO 2 incubator with 5% carbon dioxide supply. The cells were seeded at a concentration of 1×10^6 cells in a 96-well plate and cultured until they reached 100% confluency. To measure adipocyte differentiation, the cells were treated with MD medium (0.5 mM 3-isobutyl-1-methylxanthine and 1 μM dexamethasone). After 2 days, the medium was replaced with DMEM medium containing 10% FBS, and further cultured for 6 days. Moringa powder and fermented Moringa extract were treated at various concentrations. […] After 10 minutes, fluorescence intensity was measured using a fluorescence intensity reader. Subsequently, the inhibitory effect on adipocyte differentiation in the six compounds isolated in Example 2 was measured. […]
compound,measurement,value
"CC(=O)OC[C@H]1O[C@@H](Oc2c(-c3ccc(O)cc3)oc3cc(O)cc(O)c3c2=O)[C@H](O)[C@@H](O)[C@@H]1O [MOFE-16-5, 6″-O-acetyl astragalin]",adipocyte differentiation inhibition activity of isolated compounds,excellent adipocyte differentiation inhibition activity
